Assay results from ChEMBL document CHEMBL1201862, “PubChem BioAssay data set” (2004).
Structures can show the parent of a compound that is named as a salt.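 How tested: cells in 96-well plates exposed to compound for 48 hours at five concentrations. GI50: concentration for 50% inhibition of growth.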 The source made the active and inactive calls. No stated cut-off is given here; in the data, active = GI50 up to about 1.1 µM and inactive = higher.

Experiments:
Assay in all cases: growth of human tumour cells (NCI), 48 h
ACHN = tested on: ACHN
BT-549 = tested on: BT-549
CAKI-1 = tested on: CAKI-1
COLO 205 = tested on: COLO 205
EKVX = tested on: EKVX
HCT-116 = tested on: HCT-116
HCT-15 = tested on: HCT-15
MDA-MB-231 = tested on: MDA-MB-231
NCI-H226 = tested on: NCI-H226
NCI-H460 = tested on: NCI-H460
OVCAR-4 = tested on: OVCAR-4
PC-3 = tested on: PC-3
RPMI-8226 = tested on: RPMI-8226
SK-MEL-5 = tested on: SK-MEL-5
SNB-19 = tested on: SNB-19
SNB-75 = tested on: SNB-75
SR = tested on: SR
T47D = tested on: T47D
U-251 = tested on: U-251

Row | SMILES | GI50 (ACHN) | GI50 (BT-549) | GI50 (CAKI-1) | GI50 (COLO 205) | GI50 (EKVX) | GI50 (HCT-116) | GI50 (HCT-15) [µM] | GI50 (MDA-MB-231) | GI50 (NCI-H226) | GI50 (NCI-H460) | GI50 (OVCAR-4) | GI50 (PC-3) | GI50 (RPMI-8226) | GI50 (SK-MEL-5) | GI50 (SNB-19) | GI50 (SNB-75) | GI50 (SR) | GI50 (T47D) | GI50 (U-251)
1 | CC(=O)NC1C(OCc2ccccc2)OC(CO)C(O)C1OCC(=O)N[C@@H](C)C(=O)N[C@H](CCC(=O)NCCCNc1c2ccccc2nc2cccc([N+](=O)[O-])c12)C(N)=O (stereo partly specified) | 0.0182 µM (active) | 0.0845 µM (active) | 0.0338 µM (active) | 0.0118 µM (active) | 0.0462 µM (active) | < 0.0127 µM (active) | 0.0312 | 0.05 µM (active) | 0.0586 µM (active) | 0.0101 µM (active) | 0.0418 µM (active) | 0.0368 µM (active) | 0.0411 µM (active) | 0.0148 µM (active) | 0.16 µM (active) | 0.122 µM (active) | 0.0249 µM (active) | 0.047 µM (active) | 0.0349 µM (active)
2 | CCCCCC(O)C(O)CCC[C@H](O)[C@H]1CC[C@H]([C@H]2CC[C@H]([C@H](O)CCCCCCCCCCCCC3=C[C@H](C)OC3=O)O2)O1 (stereo partly specified) | 1.59 µM (inactive) | 8.93 µM (inactive) | 5.07 µM (inactive) | 3.98 µM (inactive) | 2.62 µM (inactive) | 1.36 µM (inactive) | 3.81 | 4.32 µM (inactive) | 2.49 µM (inactive) | 2.43 µM (inactive) | 5.11 µM (inactive) | 2.94 µM (inactive) | 1.28 µM (inactive) | 1.22 µM (inactive) | 3.14 µM (inactive) | 5.43 µM (inactive) | 4.15 µM (inactive) | 7.19 µM (inactive) | 3.73 µM (inactive)
3 | Cc1cc(C2(c3cc(C)c(O)c(C(=O)O)c3)OS(=O)(=O)c3ccccc32)cc(C(=O)O)c1O | > 100 µM (inactive) | > 100 µM (inactive) | > 100 µM (inactive) | > 100 µM (inactive) | > 100 µM (inactive) | > 100 µM (inactive) | > 100 | > 100 µM (inactive) | > 100 µM (inactive) | > 100 µM (inactive) | > 100 µM (inactive) | > 100 µM (inactive) | > 100 µM (inactive) | > 100 µM (inactive) | > 100 µM (inactive) | > 100 µM (inactive) | > 100 µM (inactive) | > 100 µM (inactive) | > 100 µM (inactive)
4 | CCC(C)C(N)C(=O)N/N=C\c1c2c(nc3ccccc13)-c1cc3c(c(=O)n1C2)COC(=O)[C@]3(O)CC (stereo partly specified) | < 0.0117 µM (active) | 0.174 µM (active) | 0.0397 µM (active) | 2.95 µM (inactive) | 1.89 µM (inactive) | 0.0536 µM (active) | 0.356 | 2.37 µM (inactive) | 0.0598 µM (active) | < 0.0134 µM (active) | 1.43 µM (inactive) | 0.387 µM (active) | 0.142 µM (active) | 0.0594 µM (active) | < 0.01 µM (active) | 0.0256 µM (active) | < 0.01 µM (active) | < 0.01 µM (active) | < 0.01 µM (active)
5 | Cc1ccc2c(=O)c3c(O)c4c(cc3n(C)c2c1)OC(C)(C)C=C4 | > 10 µM (inactive) | > 10 µM (inactive) | > 10 µM (inactive) | > 10 µM (inactive) | > 10 µM (inactive) | > 10 µM (inactive) | > 10 | > 10 µM (inactive) | > 10 µM (inactive) | > 10 µM (inactive) | > 10 µM (inactive) | > 10 µM (inactive) | > 10 µM (inactive) | > 10 µM (inactive) | > 10 µM (inactive) | > 10 µM (inactive) | > 10 µM (inactive) | > 10 µM (inactive) | > 10 µM (inactive)
6 | C[C@]12CCC(=O)C=C1CC[C@@H]1[C@@H]2CC[C@]2(C)C(=O)/C(=C\c3ccccc3)C[C@@H]12 | 33.3 µM (inactive) | 25.8 µM (inactive) | 43.5 µM (inactive) | 24.2 µM (inactive) | 19 µM (inactive) | 11.4 µM (inactive) | 21.9 | > 50.8 µM (inactive) | 2.38 µM (inactive) | 17.1 µM (inactive) | 41.9 µM (inactive) | 12.8 µM (inactive) | 10.9 µM (inactive) | 14.2 µM (inactive) | 60.5 µM (inactive) | 61.1 µM (inactive) | 4.53 µM (inactive) | 17.5 µM (inactive) | 29.4 µM (inactive)
7 | CCN(CC)CCNc1ccc(C)c2sc3ccccc3c(=O)c12 [LUCANTHONE HYDROCHLORIDE] | 3.54 µM (inactive) | 4.36 µM (inactive) | 2.85 µM (inactive) | 1.67 µM (inactive) | 6.82 µM (inactive) | 1.91 µM (inactive) | 2.75 | 2.85 µM (inactive) | 5.04 µM (inactive) | 1.97 µM (inactive) | 4.66 µM (inactive) | 2.03 µM (inactive) | 1.9 µM (inactive) | 2.17 µM (inactive) | 2.54 µM (inactive) | 2.06 µM (inactive) | 2.33 µM (inactive) | 7.08 µM (inactive) | 2.33 µM (inactive)
8 | CC(=O)/C=N/CC(=O)O | > 100 µM (inactive) | > 100 µM (inactive) | > 100 µM (inactive) | > 100 µM (inactive) | > 100 µM (inactive) | > 100 µM (inactive) | > 100 | > 100 µM (inactive) | > 100 µM (inactive) | > 100 µM (inactive) | > 100 µM (inactive) | > 100 µM (inactive) | > 100 µM (inactive) | > 100 µM (inactive) | > 100 µM (inactive) | > 100 µM (inactive) | > 100 µM (inactive) | > 100 µM (inactive) | > 100 µM (inactive)
9 | COc1cc2c(cc1OCCCC(=O)Nc1cc(C(=O)Nc3cc(C(=O)Nc4cc(C(=O)NCCCN(C)C)n(C)c4)n(C)c3)n(C)c1)N=C[C@@H]1CCCN1C2=O | 1.61 µM (inactive) | 1.96 µM (inactive) | 0.587 µM (active) | 1.61 µM (inactive) | 2.89 µM (inactive) | 1.69 µM (inactive) | 1.82 | 2.3 µM (inactive) | 5.56 µM (inactive) | 3.21 µM (inactive) | 1.95 µM (inactive) | 2.28 µM (inactive) | 1.67 µM (inactive) | 2.24 µM (inactive) | 6.32 µM (inactive) | 3.3 µM (inactive) | 0.367 µM (active) | 1.79 µM (inactive) | 1.6 µM (inactive)
10 | O=C1c2ccccc2-c2cc([N+](=O)[O-])c([N+](=O)[O-])cc21 | 1.68 µM (inactive) | 1.92 µM (inactive) | 2.47 µM (inactive) | 2.11 µM (inactive) | 2.04 µM (inactive) | 1.94 µM (inactive) | 1.78 | 1.8 µM (inactive) | 4.21 µM (inactive) | 1.51 µM (inactive) | 1.81 µM (inactive) | 1.55 µM (inactive) | 1.04 µM (active) | 1.87 µM (inactive) | 1.71 µM (inactive) | 1.82 µM (inactive) | 0.13 µM (active) | 0.748 µM (active) | 1.56 µM (inactive)
11 | CN(C)Cc1cc(/N=N/c2ccccc2Cl)ccc1O | 12.1 µM (inactive) | 17 µM (inactive) | 15.1 µM (inactive) | 13.4 µM (inactive) | 49.3 µM (inactive) | 28.1 µM (inactive) | 20.1 | 18.2 µM (inactive) | 16.1 µM (inactive) | 5.98 µM (inactive) | 52.6 µM (inactive) | 27.5 µM (inactive) | 23.7 µM (inactive) | 11.9 µM (inactive) | 32.2 µM (inactive) | 18.7 µM (inactive) | 26.5 µM (inactive) | 17.7 µM (inactive) | 23.7 µM (inactive)
12 | O=c1[nH]nc(-c2ccccc2)c2[nH]c3c(c12)Cc1ccccc1-3 | 6.18 µM (inactive) | 21.7 µM (inactive) | 13.8 µM (inactive) | 1.61 µM (inactive) | 6.79 µM (inactive) | 1.82 µM (inactive) | 0.374 | 0.378 µM (active) | 3.9 µM (inactive) | 2.11 µM (inactive) | 3.79 µM (inactive) | 4.47 µM (inactive) | 2.37 µM (inactive) | 0.115 µM (active) | 7.06 µM (inactive) | 3.28 µM (inactive) | 0.069 µM (active) | > 100 µM (inactive) | 3.64 µM (inactive)
13 | O=C(Nc1ccc2ncccc2c1)Nc1ccc2ncccc2c1 | > 100 µM (inactive) | > 100 µM (inactive) | > 100 µM (inactive) | > 100 µM (inactive) | > 100 µM (inactive) | > 100 µM (inactive) | > 100 | > 100 µM (inactive) | > 100 µM (inactive) | > 100 µM (inactive) | > 100 µM (inactive) | > 100 µM (inactive) | > 100 µM (inactive) | > 100 µM (inactive) | > 100 µM (inactive) | > 100 µM (inactive) | > 100 µM (inactive) | > 100 µM (inactive) | > 100 µM (inactive)
14 | CC(=O)N1CC[N+](C)(CCCCN2c3ccccc3Sc3cc(N=[N+]=[N-])ccc32)CC1 | > 100 µM (inactive) | > 100 µM (inactive) | > 100 µM (inactive) | > 100 µM (inactive) | > 100 µM (inactive) | > 100 µM (inactive) | > 100 | > 100 µM (inactive) | > 100 µM (inactive) | > 100 µM (inactive) | 18 µM (inactive) | > 100 µM (inactive) | > 100 µM (inactive) | 62.8 µM (inactive) | > 100 µM (inactive) | > 100 µM (inactive) | > 100 µM (inactive) | > 100 µM (inactive) | > 100 µM (inactive)
